Values of other authors as cited in patent US20040208936A1, “Novel compositions” (priority 2002, published 2004).
In brackets after ≈: the same amount, converted by molar mass.

System: S pneumoniae
Details: some 10% of pneumococci

CC1(C)S[C@@H]2[C@H](NC(=O)[C@H](N)c3ccc(O)cc3)C(=O)N2[C@H]1C(=O)O [Amoxicillin]
MIC: 2 µg/mL (≈ 5.47 µM)
